Legend:
P388 tumour cells = assay: P388 in vivo, life span extension; parameters: species or system mice (F1 hybrid, DBA-2 male x C57 B1 female); key to P388 in vivo Active: Y: implies a significant value of drug activity at the stated dose; N: implies no or not statistically significant activity; conditions: for P388 in vivo ILS (percentage increase in life span): at optimal dose, days 1, 5 and 9, vs controls (average survival 11 days), greater than 20% statistically significant; for P388 in vivo Active: at the stated (optimal) dose
Protocol: P388 in vivo--Tumour P388 cells were obtained as frozen stocks from Mason Research Inc., U.S.A. and passaged intraperitoneally according to standard methods (Cancer Chemother. Rep. 3, Part 3, page 9, 1972) in DBA-2 mice of either sex. Groups of six Fl hybrid mice (DBA-2 male x C57 B1 female, g weight 20±1 g) were injected intraperitoneally with 10^6 cells on day 0.
O.D.--optimal drug dose, in milligrams per kilogram, administered as a solution in 0.1 ml of 30% v/v ethyl alcohol in water on days 1, 5 and 9 after tumour inoculation. The drug is administered as a soluble acid addition salt.
ILS--percentage increase in life span of treated animals over that of groups of control animals injected with tumour alone. The average survival of control mice was 11 days. Values of ILS greater than 20% are considered statistically significant.
Y. implies a significant value of drug activity at the stated dose.
N. implies no or not statistically significant activity.

[1] = tested on: murine L1210 leukaemic cells; assay: L1210 in vitro growth inhibition; assay type: cell-based; conditions: Mus musculus, drug added to cultures over 70 hours, 50% reduction of counted leukaemia cells, below 1000 nM considered significant, read-out: L1210 in vitro ID50
Protocol: L1210 in vitro--The culture methods used are described in detail elsewhere (B. C. Baguley and R. Nash, Europ. J. Cancer, 17, 671-679 (1981)). Acceptable reproducibility of data depends critically upon the maintenance of optimal culture conditions. L1210 cells were initially obtained from Dr I. Wodinsky, Arthur D. Little Inc., Boston, U.S.A., under the auspices of the National Cancer Institute.
Values below 1000 nM are considered significant.

[2] = Reversed phase partition chromatography (lipophilic-hydrophilic balance); assay type: physicochemical; conditions: linearly related to partition coefficients in 1-octanol/water, read-out: Rm
From the text: Rm=a measure of the compound's lipophilic-hydrophilic balance from reversed phase partition chromatography. Rm is linearly related to partition coefficients obtained in the 1-octanol/water system.

Streptococcus faecalis = assay: Antibacterial activity
Xanthomonas phaseoli = assay: Antibacterial activity
Staphylococcus aureus = assay: Antibacterial activity
Neisseria catarrhalis = assay: Antibacterial activity
Aerobacter aerogenes = assay: Antibacterial activity
Alcaligenes viscolatis = assay: Antibacterial activity
Sarcina lutea = assay: Antibacterial activity
Escherichia coli = assay: Antibacterial activity
[3] = tested on: Micrococcus lysodeikticus; assay: Antibacterial activity
Bacillus subtilis = assay: Antibacterial activity
[4] = cited from earlier work

IC50 [1]	chromatographic logP [2]	Structure (SMILES)	P388 in vivo ILS (percentage increase in life span) (P388 tumour cells)	P388 in vivo Active (P388 tumour cells)	other results
105 nM	-0.2	CN(C)CCNC(=O)c1cccc2cc3ccccc3nc12 [Compound 1]	91%	Y	–
66 nM	-0.3	Cc1c2ccccc2nc2c(C(=O)NCCN(C)C)cccc12 [Compound 2, N-(2-dimethylaminoethyl)-9-methylacridine-4-carboxamide]	14%	N	–
157 nM	-0.93	CN(C)CCCNC(=O)c1cccc2c(N)c3ccccc3nc12 [Compound 5]	0%	N	–
77 nM	-1.06	Nc1c2ccccc2nc2c(C(=O)NCCNCCO)cccc12 [Compound 6]	80%	Y	–
5.5 nM	-0.67	CCN(CC)CCNC(=O)c1cccc2c(N)c3ccccc3nc12 [Compound 7]	70%	Y	–
414 nM	-1.18	NCCNC(=O)c1cccc2c(N)c3ccccc3nc12 [Compound 8]	71%	Y	–
319 nM	–	CN(C)CCNC(=O)c1cc([N+](=O)[O-])cc2c(N)c3ccccc3nc12 [Compound 9]	25%	Y	–
162 nM	–	CN(C)CCNC(=O)c1cc(N)cc2c(N)c3ccccc3nc12 [Compound 10]	28%	Y	–
1.3 nM	–	CN(C)CCNC(=O)c1cccc2c(N)c3cccc([N+](=O)[O-])c3nc12 [Compound 11]	39%	Y	–
18 nM	–	CN(C)CCNC(=O)c1cccc2c(N)c3cccc(N)c3nc12 [Compound 12]	58%	Y	–
0.33 nM	-1.02	Cc1cccc2c(N)c3cccc(C(=O)NCCN(C)C)c3nc12 [Compound 13]	107%	Y	–
4.3 nM	-1.06	COc1cccc2c(N)c3cccc(C(=O)NCCN(C)C)c3nc12 [Compound 14]	81%	Y	–
2.9 nM	–	CN(C)CCNC(=O)c1cccc2c(N)c3cccc(Cl)c3nc12 [Compound 15]	81%	Y	–
0.05 nM	–	CN(C)CCNC(=O)c1cccc2c(N)c3ccc([N+](=O)[O-])cc3nc12 [Compound 16]	23%	Y	–
35 nM	–	CN(C)CCNC(=O)c1cccc2c(N)c3ccc(N)cc3nc12 [Compound 17]	58%	Y	–
55 nM	-0.82	Cc1ccc2c(N)c3cccc(C(=O)NCCN(C)C)c3nc2c1 [Compound 18]	20%	N	–
151 nM	–	COc1ccc2c(N)c3cccc(C(=O)NCCN(C)C)c3nc2c1 [Compound 19]	17%	N	–
104 nM	-1.29	CN(C)CCNC(=O)c1cccc2c(N)c3cc([N+](=O)[O-])ccc3nc12.Cl.Cl [Compound 20, N-(2-dimethylaminoethyl)-9-amino-7-nitroacridine-4-carboxamide dihydrochloride]	34%	Y	–
48 nM	-1.64	CN(C)CCNC(=O)c1cccc2c(N)c3cc(N)ccc3nc12 [Compound 21]	80%	Y	–
605 nM	–	Cc1ccc2nc3c(C(=O)NCCN(C)C)cccc3c(N)c2c1 [Compound 22]	0%	N	–
518 nM	–	COc1ccc2nc3c(C(=O)NCCN(C)C)cccc3c(N)c2c1 [Compound 23]	4%	N	–
722 nM	–	CN(C)CCNC(=O)c1cccc2c(N)c3cc(Cl)ccc3nc12 [Compound 24]	8%	N	–
–	–	CCN(CC)CCCC(C)Nc1c2ccc(Cl)cc2nc2ccc(OC)cc12 (centres unmarked) [mepacrine]	–	–	Local clinical cytostatic effects [4]: Local clinical cytostatic effects

Structure (SMILES)	IC50 [1]	chromatographic logP [2]	P388 in vivo ILS (percentage increase in life span) (P388 tumour cells)	P388 in vivo Active (P388 tumour cells)	other results
CNc1c2ccccc2nc2c(C(=O)NCCN(C)C)cccc12 [Compound 3]	15 nM	-1.11	53%	Y	–
CN(C)CCNC(=O)c1cccc2c(N)c3ccccc3nc12 [Compound 4]	–	-1.11	98%	Y	Antibacterial activity (Streptococcus faecalis): active; Antibacterial activity (Xanthomonas phaseoli): active; Antibacterial activity (Staphylococcus aureus): active; Antibacterial activity (Neisseria catarrhalis): active; Antibacterial activity (Aerobacter aerogenes): active; Antibacterial activity (Alcaligenes viscolatis): active; Antibacterial activity (Sarcina lutea): active; Antibacterial activity (Escherichia coli): active; Antibacterial activity [3]: active; Antibacterial activity (Bacillus subtilis): active

Source: patent US4590277A, “Acridinecarboxamide compounds” (Development Finance Corporation of New Zealand, priority 1982, dated 1986)
